Measurements taken from patent US20260226105A1, “Antimicrobial And Antibiofilm Peptides Sequences With Metal-Binding Motifs” (The Trustee of the University of Pennsylvania, priority 2021, published 2026).
Where “and” joins values, the source holds several entries; their conditions need not be identical. Identical values can stand only once. Like-named read-outs stand apart in the source and are kept apart here. Ends that are not written are not given here.

What was measured:
E. coli KpC+1812446 = format: in vivo, mice
Procedure: Male Balb/C (18-20 g) mice from the Biotério Central do Campus da USP in Ribeirão Preto, São Paulo, were kept in groups of 5 per cage at 22° C. with normal cycles of light and free access to food and water. The care and use of the animals were approved by the Ethics Committee of Universidade Católica Dom Bosco number 019/2016. We assessed the ability of the peptides to protect the mice from lethal systemic infections induced with E. coli KpC+1812446. The mice (n=40) were randomly placed into eight groups of five mice each, and each mouse was injected intraperitoneally with 200 μL of saline solution containing 2×10^7 CFU of E. coli KpC+1812446. Intraperitoneal treatment with 5 or 10 mg·Kg^−1 of each peptide was initiated after one hour of infection and repeated at 24 h intervals for seven days^61. Gentamicin at 10 mg·Kg^−1 of body weight and normal saline were used as positive and negative controls, respectively.

E. coli (ATCC 25922) [1] = test system: E. coli (ATCC 25922)
E. coli (KpC+ 1812446) = settings: MH broth, 12 h, 37° C.
[2] = test system: K. pneumoniae (KpC+ 1825971)
[3] = test system: K. pneumoniae (ATCC 13883); settings: MH broth, 12 h, 37° C.
[4] = test system: P. aeruginosa (ATCC 27853); settings: MH broth, 12 h, 37° C.
MRSA (3730529) = settings: MH broth, 12 h, 37° C.
E. coli (KpC1812446) [5] = settings: Table 3, agent alone
E. coli (ATCC25922) = settings: Table 3, agent alone
[6] = test system: K. pneumoniae (ATCC13883); settings: Table 3, agent alone
[7] = test system: K. pneumoniae (KpC1825971); settings: Table 3, agent alone
E. coli (KpC1812446) [8] = settings: agent alone, BM2 minimal medium
E. coli (ATCC 25922) [9] = settings: agent alone, BM2 minimal medium
[10] = test system: K. pneumoniae (ATCC13883); settings: agent alone, BM2 minimal medium
[11] = test system: K. pneumoniae (KpC1825971); settings: agent alone, BM2 minimal medium
[12] = test system: E. coli (KpC+1812446) planktonic cells; settings: Planktonic
[13] = test system: E. coli (KpC+1812446) biofilm; settings: Biofilm
[14] = Cu(II) supplemented medium (0.25 μM)

Sequence: GGHKWKLFKKIGAVLKVL [GGH-CM15]
- mouse deaths (E. coli KpC+1812446; 5 and 10 mg·Kg^−1 intraperitoneal): all the mice died on the first day
- in vivo toxicity (E. coli KpC+1812446; infected Balb/C mice, 5 and 10 mg·Kg^−1): did not decrease the toxicity of CM15
- MIC in Cu(II) supplemented medium (E. coli (ATCC 25922) [1]; [14]): 2 µM
- MIC (E. coli (ATCC 25922) [1]; MH broth, 12 h, 37° C.): 2 µM
- MIC (E. coli (KpC+ 1812446)): 2 µM
- MIC in Cu(II) supplemented medium (E. coli (KpC+ 2101123); [14]): 2 µM
- MIC (E. coli (KpC+ 2101123); MH broth, 12 h, 37° C.): 2 µM
- MIC in Cu(II) supplemented medium [2, 14]: 2 µM
- MIC ([2]; MH broth, 12 h, 37° C.): 2 µM
- MIC [3]: 1 µM
- MIC [4]: 1 µM
- MIC (MRSA (3730529)): 2 µM
- MIC in Cu(II) supplemented medium (S. aureus (ATCC 25923); [14]): 1 µM
- MIC (S. aureus (ATCC 25923); MH broth, 12 h, 37° C.): 1 µM
- MIC, TETA (E. coli MG1655; cell-impermeable Cu(II) chelator triethylenetetramine (TETA) 200 μM): 2 µM
- MIC, TTM (E. coli MG1655; cell-permeable Cu(II) chelator tetrathiolmolybdate (TTM) 200 μM): 32 µM
- MIC, No Chelator (E. coli MG1655; no chelator): 1 µM
- MIC (E. coli (KpC1812446) [5]): 8 µM
- MIC (E. coli (ATCC25922)): 4 µM
- MIC [6]: >32 µM
- MIC [7]: 8 µM
- MBIC (E. coli (KpC1812446) [8]): 4 µM
- MBIC (E. coli (ATCC 25922) [9]): 4 µM
- MBIC [10]: >32 µM
- MBIC [11]: 4 µM
- FICI ([12]; peptide + AmP): 1.52 and 1.5
- FICI ([12]; peptide + CHL): 0.5 and 0.5008
- FICI ([12]; peptide + MER): 0.52
- FICI ([12]; peptide + STR): 1.5
- FICI ([12]; peptide + TRI): 0.5
- FICI ([13]; peptide + AmP): 2.0
- FICI ([13]; peptide + CHL): 2.0
- FICI ([13]; peptide + MER): 0.27
- FICI ([13]; peptide + STR): 0.78 and 0.75
- FICI ([13]; peptide + TRI): 1.5
